{"source": "patent US4451473A", "about": "“3,7-Diazabicyclo [3.3.1] nonanes having anti-arrhythmic activity” (Richter Gedeon Vegyeszeti Gyar Rt., priority 1981, dated 1984)", "key": {"[1]": {"test_system": "calcium antagonistic effect", "assay": "Calcium antagonistic effect (pA2)"}, "in vivo": {"assay": "in vivo", "conditions": "mouse, iv"}, "[2]": {"test_system": "disorders of cardiac rhythm provoked by aconitine in rats", "format": "in vivo", "conditions": "ED50 rat i.v. / LD50 mouse i.v.", "description": "When examining the antiarrhythmic effects, rats were pre-treated intravenously with 1 mg/kg of aconitine to provoke disorders of cardiac rhythm [Med. Exp. (Basel) 10, 93 (1964)], thereafter the test compound was administered intravenously, and the dose required to restore the rhythm in 50% (ED50 mg/kg) was determined."}}, "note": "Counter-ions that a name gives are not always drawn."}
{"compound": "COc1ccc(CCN(C)CCCC(C#N)(c2ccc(OC)c(OC)c2)C(C)C)cc1OC", "note": "(racemic) [Verapramil, reference compound]", "values": [{"measurement": "calcium antagonistic effect (pA2)", "setting": "[1]", "value": "4.58-4.7"}]}
{"compound": "CCOc1ccc(C(=O)OC2C3CN(C)CC2CN(C)C3)cc1OC", "note": "(stereo not shown) [3,7-Dimethyl-9-(3'-methoxy-4'-ethoxy-benzoyloxy)-3,7-diazabicyclo[3.3.1]nonane]", "values": [{"measurement": "LD50", "setting": "in vivo", "value": 13.5, "unit": "mg/kg"}, {"measurement": "Therap. index (ED50/LD50)", "setting": "[2]", "value": 0.074}]}
{"compound": "CN1CC2CN(C)CC(C1)C2Oc1ccc(Cl)cc1.O=C(O)/C=C/C(=O)O", "note": "(stereo not shown) [3,7-Dimethyl-9-(4'-chlorophenoxy)-3,7-diazabicyclo[3.3.1]nonane fumarate]", "values": [{"measurement": "LD50", "setting": "in vivo", "value": 52, "unit": "mg/kg"}, {"measurement": "Therap. index (ED50/LD50)", "setting": "[2]", "value": 0.017}]}
{"compound": "CN1CC2CN(C)CC(C1)C2OC(c1ccccc1)c1ccccc1.O=C(O)/C=C/C(=O)O", "note": "(stereo not shown) [3,7-Dimethyl-9-benzhydryloxy-3,7-diazabicyclo[3.3.1]nonane fumarate]", "values": [{"measurement": "LD50", "setting": "in vivo", "value": 21, "unit": "mg/kg"}, {"measurement": "Therap. index (ED50/LD50)", "setting": "[2]", "value": 0.057}]}
{"compound": "CN1CC2CN(C)CC(C1)C2OC(=O)c1ccccc1", "note": "(stereo not shown) [3,7-Dimethyl-9-benzoyloxy-3,7-diazabicyclo[3.3.1]nonane]", "values": [{"measurement": "LD50", "setting": "in vivo", "value": 9, "unit": "mg/kg"}, {"measurement": "Therap. index (ED50/LD50)", "setting": "[2]", "value": 0.009}]}
{"compound": "CCCCN1CC2CN(CCCC)CC(C1)C2OC(=O)c1ccc(Cl)cc1", "note": "(stereo not shown) [3,7-di-n-butyl-9-(4'-chlorobenzoyloxy)-3,7-diazabicyclo[3.3.1]nonane]", "values": [{"measurement": "LD50", "setting": "in vivo", "value": 5, "unit": "mg/kg"}, {"measurement": "Therap. index (ED50/LD50)", "setting": "[2]", "value": 0.050}]}
{"compound": "CCN1CC2CN(CC)CC(C1)C2OC(=O)c1ccc(Cl)cc1.Cl.Cl.O", "note": "(stereo not shown) [3,7-diethyl-9-(4'-chloro-benzoyloxy)-3,7-diazabicyclo[3.3.1]nonane dihydrochloride monohydrate]", "values": [{"measurement": "LD50", "setting": "in vivo", "value": 11, "unit": "mg/kg"}, {"measurement": "Therap. index (ED50/LD50)", "setting": "[2]", "value": 0.036}]}
{"compound": "CN1CC2CN(C)CC(C1)C2OC(=O)c1ccc2ccccc2c1", "note": "(stereo not shown) [3,7-dimethyl-9-(2'-naphthoyloxy)-3,7-diazabicyclo[3.3.1]nonane]", "values": [{"measurement": "LD50", "setting": "in vivo", "value": 17, "unit": "mg/kg"}, {"measurement": "Therap. index (ED50/LD50)", "setting": "[2]", "value": 0.006}]}
{"compound": "CN1CC2CN(C)CC(C1)C2OC(=O)C1c2ccccc2Oc2ccccc21", "note": "(stereo not shown) [3,7-dimethyl-9-(xanthene-9'-carbonyloxy)-3,7-diazabicyclo[3.3.1]nonane]", "values": [{"measurement": "LD50", "setting": "in vivo", "value": 14, "unit": "mg/kg"}, {"measurement": "Therap. index (ED50/LD50)", "setting": "[2]", "value": 0.019}]}
{"compound": "CN1CC2CN(C)CC(C1)C2Oc1ccccc1.O=C(O)/C=C/C(=O)O", "note": "(stereo not shown) [3,7-dimethyl-9-phenoxy-3,7-diazabicyclo[3.3.1]nonane fumarate]", "values": [{"measurement": "LD50", "setting": "in vivo", "value": 39, "unit": "mg/kg"}, {"measurement": "Therap. index (ED50/LD50)", "setting": "[2]", "value": 0.029}]}
{"compound": "CCN1CC2CN(C)CC(C1)C2OC(=O)c1ccc(Cl)cc1Cl", "note": "(stereo not drawn) [3-Methyl-7-ethyl-9α-(2',4'-dichloro-benzoyloxy)-3,7-diazabicyclo[3.3.1]nonane dihydrochloride]", "values": [{"measurement": "LD50", "setting": "in vivo", "value": 20, "unit": "mg/kg"}, {"measurement": "Therap. index (ED50/LD50)", "setting": "[2]", "value": 0.055}]}
{"compound": "CCN1CC2CN(C)CC(C1)C2Oc1ccccc1Cl", "note": "(stereo not drawn) [3-Methyl-7-ethyl-9α-(2'-chlorophenoxy)-3,7-diazabicyclo[3.3.1]nonanedihydrochloride]", "values": [{"measurement": "LD50", "setting": "in vivo", "value": 28, "unit": "mg/kg"}, {"measurement": "Therap. index (ED50/LD50)", "setting": "[2]", "value": 0.041}]}
{"compound": "CCN1CC2CN(C)CC(C1)C2OC(=O)c1ccc(Cl)cc1", "note": "(stereo not drawn) [3-Methyl-7-ethyl-9α-(4'-chloro-benzoyloxy)-3,7-diazabicyclo[3.3.1]nonane dihydrochloride]", "values": [{"measurement": "calcium antagonistic effect (pA2)", "setting": "[1]", "value": "4.33-4.6"}]}
{"compound": "CCN1CC2CN(C)CC(C1)C2Oc1ccc(Cl)cc1", "note": "(stereo not drawn) [3-Methyl-7-ethyl-9α-(4'-chlorophenoxy)-3,7-diazabicyclo[3.3.1]nonanedihydrochloride]", "values": [{"measurement": "LD50", "setting": "in vivo", "value": 41, "unit": "mg/kg"}, {"measurement": "Therap. index (ED50/LD50)", "setting": "[2]", "value": 0.030}]}
{"compound": "CCN1CC2CN(C)CC(C1)C2OC(=O)c1ccc(-c2ccccc2)cc1", "note": "(stereo not drawn) [3-Methyl-7-ethyl-9α-(4'-phenyl-benzoyloxy)-3,7-diazabicyclo[3.3.1]nonane]", "values": [{"measurement": "LD50", "setting": "in vivo", "value": 19.5, "unit": "mg/kg"}, {"measurement": "Therap. index (ED50/LD50)", "setting": "[2]", "value": 0.061}]}
